Test results published in patent EP0332387B1, “Triazole derivatives, their preparation and their use as fungicides” (Sankyo Company Limited, priority 1988, dated 1989).

Legend:
Format in all cases: in vivo
Gibberella Fujikuroi = experiment: Activity against bakanae disease of rice plants by seed soaking (Experiment 5); parameters: key: 0 = disease as untreated, 5 = no disease (complete control); conditions: infected rice seeds (variety Tanginbozu) immersed 3 days in aqueous suspension (concentration not given), 3 weeks; number of diseased seedlings
Experimental: Ten grams of rice seeds (variety Tanginbozu), infected with Gibberella Fujikuroi, were immersed in 20 ml of an aqueous suspension of the test compound for 3 days. At the end of this time, the treated seeds were densely sown in soil in pots, and the pots were placed in a greenhouse at 20 - 30 °C for 3 weeks. The disease controlling index was given on the basis of the number of diseased seedlings.
(§1) The compounds tested have the formula (1-1), in which Ar represents the group shown at the beginning of each part of the Table and R^1, R^2, X and Y are as defined in the Table.
(§2) The disease controlling index shown in the foregoing Tables 11 to 19 is indicated by the following codes: • 5--no disease (complete control) • 4--disease rate is less than 10% of the untreated plant • 3--disease rate is 10% - 30% of the untreated plant • 2--disease rate is 30% - 50% of the untreated plant • 1--disease rate is 50% - 70% of the untreated plant • 0--disease rate is almost same as the untreated plant.

Puccinia recondita = experiment: Curative activity against leaf rust of wheat (Experiment 6); conditions: wheat seedlings (variety Norin No 61), sprayed after inoculation at 3 ppm (30 ml/3 pots), 10 days; diseased area on the first leaf
Experimental: Wheat seedlings (variety Norin No 61) at the first leaf stage were inoculated with the fungus, Puccinia recondita, by spraying them with a spore suspension of the fungus. They were then kept in a moist chamber for 24 hours at 20 - 22 °C, after which they were moved to a greenhouse at 15 - 20 °C. […] The seedlings were then continuously kept in the greenhouse for 10 days. The disease controlling index was given on the basis of diseased area on the first leaf.

Pyricularia oryzae = conditions: rice seedlings (variety Sachikaze), sprayed 24 hours after inoculation at 10 ppm (30 ml/3 pots), further 6 days; number of lesions on the upper two leaves
Sphaerotheca fuliginea = experiment: Preventive activity against powdery mildew of cucumber (Experiment 8); conditions: cucumber seedlings sprayed at 300 ppm, inoculated after 24 hours, evaluated after 7 days in greenhouse; diseased area on third and fourth leaves
Experimental: Cucumber seedlings (variety Sagamihanpaku) at the 3 - 4 leaf stage were sprayed with an aqueous suspension of the test compound at a concentration of 300 ppm (30 ml/3 pots). The seedlings were then kept for 24 hours at room temperature, after which they were inoculated with conidida of Sphaerotheca fuliginea. After keeping the seedlings in a greenhouse for 7 days, the disease controlling index was evaluated on the basis of the diseased area on the third and fourth leaves.

[1] = system: Erysiphe graminis f.sp. hordei; experiment: Curative activity against powdery mildew of barley (Experiment 7); conditions: barley seedlings (variety Sekishinriki), sprayed one day after inoculation at 3 ppm (30 ml/3 pots), further 10 days; diseased area on the first leaf
Experimental: Barley seedlings (variety […]) at the first leaf stage were inoculated with conidia of Erysiphe graminis f.sp. hordei and kept in a greenhouse at 15 - 20°C. After one day, the seedlings were sprayed with an aqueous suspension of the test compound at a concentration of 3 ppm (30 ml/3 pots), and they continued to be kept in the greenhouse at that temperature for a further 10 days. The disease controlling index was given on the basis of the diseased area on the first leaf.

Rhizoctonia solani [2] = experiment: Curative activity against sheath blight of rice plants (Experiment 3); parameters: key: 0 = disease as untreated, 5 = no disease (complete control); conditions: rice seedlings (variety Nihonbare), sprayed 24 hours after inoculation at 10 ppm (30 ml/3 pots), further 5 days; height of the lesions
Experimental: Rice seedlings (variety Nihonbare) at the 4 - 5 leaf stage were inoculated with the fungus, Rhizoctonia solani, by placing 4 - 5 oat grains on which the fungus had previously been cultured around the base of each rice seedling and keeping them in a moist chamber at 25 - 27 °C. After 24 hours, the rice seedlings were sprayed with an aqueous suspension of the test compound at a concentration of 10 ppm (30 ml/3 pots) and they then continued to be kept in the moist chamber for a further 5 days. The disease controlling index was given on the basis of the height of the lesions formed on the rice seedlings.
as §1, §2

Venturia inaequalis = experiment: Preventive activity against apple scab (Experiment 9); conditions: for Index (disease controlling index): apple seedlings sprayed at 300 ppm, inoculated after 24 hours, 3 days moist chamber then 10 days greenhouse, diseased area on third and fourth leaves
Experimental: Apple seedlings at the 3 - 4 leaf stage were sprayed with an aqueous suspension of the test compound at a concentration of 300 ppm (30 ml/3 pots). The seedlings were then kept for 24 hours at room temperature, after which they were inoculated with the fungus, Venturia inaequalis, by spraying a spore suspension of the fungus over the seedlings. After inoculation, the seedlings were kept in a moist chamber for 3 days at 20 - 22 °C and then moved to a greenhouse at 20 - 22°C for 10 days. The disease controlling index was given on the basis of the diseased area on the third and fourth leaves.

Rhizoctonia solani [3] = experiment: Preventive activity against sheath blight of rice plants (Experiment 2); parameters: key: 0 = disease as untreated, 5 = no disease (complete control); conditions: rice seedlings (variety Nihonbare), sprayed at 100 ppm (30 ml/3 pots) 24 hours before inoculation, 5 days; height of the lesions
Experimental: Rice seedlings (variety Nihonbare) at the 4 - 5 leaf stage were sprayed with an aqueous suspension of the test compound at a concentration of 100 ppm (30 ml/3 pots). The seedlings were then kept for 24 hours at room temperature, after which they were inoculated with the fungus, Rhizoctonia solani, by placing 4 - 5 oat grains on which the fungus had previously been cultured around the base of each seedling. The seedlings were then kept in a moist chamber for 5 days at 25 - 27 °C. The disease controlling index was given on the basis of the height of the lesions formed on the rice seedlings.
Except in Table 12G, the compounds tested have the formula (1-1), in which Ar represents the group shown at the beginning of each part of the Table and R^1, R^2, X and Y are as defined in the Table.
as §2

Rhizoctonia solani [4] = experiment: Preventive activity against sheath blight of rice plants by submerged application (Experiment 4); conditions: rice seedlings (variety Nihonbare), applied to the water in the pots, 100 g per 10 ares, inoculated after 7 days, 5 days; height of the lesions
Excerpt: Rice seedlings (variety Nihonbare) at the 4 - 5 leaf stage grown in pots were flooded to a depth of 1 cm with water. The test compound was then applied to the water in the pots in an amount corresponding to 100 g per 10 ares. After keeping the seedlings in a greenhouse for 7 days, the water was drained from the pots and the seedlings were inoculated with the fungus, Rhizoctonia solani, by placing 4 - 5 oat grains on which the fungus had previously been cultured around the base of each seedling. The seedlings were then kept in a moist chamber for 5 days at 25 - 27 °C. The disease controlling index was given on the basis of the height of the lesions formed on the rice seedlings.
Except for Table 14F, the compounds tested have the formula (1-1), in which Ar represents the group shown at the beginning of each part of the Table and R^1, R^2, X and Y are as defined in the Table.
as §2

Row | SMILES | disease controlling index (Gibberella Fujikuroi) | disease controlling index (Puccinia recondita) | disease controlling index (Pyricularia oryzae) | Index (disease controlling index) (Sphaerotheca fuliginea) | disease controlling index [1] | disease controlling index (Rhizoctonia solani [2]) | Index (disease controlling index) (Venturia inaequalis) | disease controlling index (Rhizoctonia solani [3]) | disease controlling index (Rhizoctonia solani [4]) | disease controlling index (Venturia inaequalis; apple seedlings, sprayed at 300 ppm (30 ml/3 pots) 24 hours before inoculation, diseased area on the third and fourth leaves)
1 | C[C@@H](N1C(=O)c2ccc(Cl)cc2C1=O)[C@](O)(Cn1cncn1)c1ccc(F)cc1F (relative stereo) [Example 135, (2R*, 3R*)-2-(2,4-Difluorophenyl)-3-(4-chlorophthalimido)-1-(1H-1,2,4-triazol-1-yl)-2-butanol] | 4 (disease rate is less than 10% of the untreated plant) | 5 | 4 (disease rate is less than 10% of the untreated plant) | 5 | 5 |  |  |  |  | 
2 | C[C@@H](N=[N+]=[N-])[C@](O)(Cn1cncn1)c1ccc(Cl)cc1 (relative stereo) [Example 63, (2R*, 3R*)-3-Azido-2-(4-chlorophenyl)-1-(1H-1,2,4-triazol-1-yl)-2-butanol] | 5 |  |  |  |  |  |  |  |  | 
3 | C[C@@H](NC(=O)c1ccc(C(F)(F)F)cc1)[C@](O)(Cn1cncn1)c1ccc(Cl)cc1Cl (relative stereo) [Example 12, (2R*, 3R*)-2-(2,4-Dichlorophenyl)-1-(1H-1,2,4-triazol-1-yl)-3-(4-trifluoromethylbenzoylamino)-2-butanol] | 4 (disease rate is less than 10% of the untreated plant) | 5 | 5 | 5 | 5 | 5 | 5 | 5 |  | 
4 | C[C@@H](NC(=O)c1ccc(F)cc1)[C@](O)(Cn1cncn1)c1ccc(Cl)cc1Cl (relative stereo) [Example 4, (2R*, 3R*)-2-(2,4-Dichlorophenyl)-3-(4-fluorobenzoylamino)-1-(1 H-1 ,2,4-triazol-1-yl)-2-butanol] |  | 5 |  |  | 5 |  | 5 | 4 (disease rate is less than 10% of the untreated plant) |  | 
5 | O=C(NCC(O)(Cn1cncn1)c1ccc(Cl)cc1Cl)c1ccc(Cl)cc1 (stereo not shown) [Compound X, 3-(4-chlorobenzoylamino)-2-(2,4-dichlorophenyl)-1-(1H-1,2,4-triaiol-1-yl)-2-propanol, reference compound] |  |  | 0 |  |  | 0 |  |  | 0 | 
6 | C[C@@H](NC(=O)c1ccc(F)cc1)[C@](O)(Cn1cncn1)c1ccc(F)cc1F (relative stereo) [Example 15, (2R*, 3R*)-2-(2,4-Difluorophenyl)-3-(4-fluorobenzoylamino)-1-(1H-1,2,4-triazol-1-yl)-2-butanol] | 4 (disease rate is less than 10% of the untreated plant) | 5 |  | 5 | 5 |  |  |  |  | 
7 | C[C@@H](CN=[N+]=[N-])[C@](O)(Cn1cncn1)c1ccc(Cl)cc1Cl (relative stereo) [Example 90, (2R*, 3S*)-4-Azido-2-(2,4-dichlorophenyl)-3-methyl-1-(1H-1,2,4-triazol-1-yl)-2-butanol] | 5 |  | 5 |  |  |  |  | 5 | 5 | 
8 | C[C@@H](NC(=O)c1ccc(Cl)cc1Cl)[C@](O)(Cn1cncn1)c1ccc(Cl)cc1Cl (relative stereo) [Example 11, (2R*, 3R*)-3-(2,4-Dichlorobenzoylamino)-2-(2,4-dichlorophenyl)-1-(1H-1,2,4-triazol-1-yl)-2-butanol] | 4 (disease rate is less than 10% of the untreated plant) |  |  | 5 |  |  | 5 | 4 (disease rate is less than 10% of the untreated plant) |  | 
9 | CC[C@@H](OC1CCCCO1)[C@](O)(Cn1cncn1)c1ccc(F)cc1F (relative stereo) [Example 202, (2R^*, 3R*)-2-(2,4-Difluorophenyl)-3-tetrahydropyranyloxy)-1-(1H-1,2,4-triazol-1-yl)-2-pentanol] |  | 5 | 4 (disease rate is less than 10% of the untreated plant) |  | 5 | 4 (disease rate is less than 10% of the untreated plant) |  | 4 (disease rate is less than 10% of the untreated plant) |  | 
10 | C[C@@H](NC(=O)c1ccc(C(F)(F)F)cc1)[C@](O)(Cn1cncn1)c1ccc(Cl)cc1Cl [Example 13, (2R, 3R)-2-(2,4-Dichlorophenyl)-3-(4-trifluoromethylbenzoylamino)-1-(1H-1,2,4-triazol-1-yl)-2-butanol] | 5 | 5 | 5 | 5 | 5 |  |  | 4 (disease rate is less than 10% of the untreated plant) |  | 
11 | C[C@@H](NC(=O)c1ccc(Cl)cc1)[C@](O)(Cn1cncn1)c1ccc(F)cc1F (relative stereo) [Example 16, (2R*, 3R*)-3-(4-Chlorobenzoylamino)-2-(2,4-difluorophenyl)-1-(1 H-1 ,2,4-triazol-1-yl)-2-butanol] | 4 (disease rate is less than 10% of the untreated plant) | 5 | 5 | 5 | 5 | 5 |  | 5 |  | 5
